Measured values published in PubChem BioAssay AID2060343 (Molecular Pharmacology Branch, DTP, NCI, 2025).
“And” between values parts separate entries of the source, which are not always exact repeats. Equal entries are not always repeated.

Tested on: 138582-337-R-J1-PDC spheroids with HUVEC/MSC, viability
Test: Anticancer human tumor 138582-337-R-J1-PDC patient-derived Merkel cell tumor cell line growth inhibition [IpAb]
Conditions: for viability, T/C: stronger effect = lower value
In short: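 Combinations with ipatasertib or abemaciclib were tested on tumour spheroids holding HUVEC (25%) and MSC (15%) alongside 60% malignant cells. Top concentration was at or near clinical Cmax (10 microM if undefined), descending in half-log steps.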

[1] = curve of first compound, second compound 0.1 µM
[2] = curve of first compound, second compound 0.316 µM
[3] = curve of first compound, second compound 1 µM
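Also: spheroids exposed to compounds for seven days.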
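For viability, T/C in this document: 100% = DMSO vehicle control viability.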

Cn1cnc2c(F)c(Nc3ccc(Br)cc3Cl)c(C(=O)NOCCO)cc21 + CC(C)NCC(C(=O)N1CCN(c2ncnc3c2C(C)CC3O)CC1)c1ccc(Cl)cc1
IC50 [1]: > 3000 nM
IC50 [2]: 1760 nM
IC50 [3]: 328 nM
IC50 (curve of first compound, second compound 3.16 µM): 63.7 nM
IC50 (curve of first compound, second compound 10 µM): < 9.49 nM
viability, T/C (second compound 0.1 µM, first compound 0.00949 µM): 97.8%
viability, T/C (second compound 0.1 µM, first compound 0.03 µM): 88.1%
viability, T/C (second compound 0.1 µM, first compound 0.0949 µM): 85.2%
viability, T/C (second compound 0.1 µM, first compound 0.3 µM): 83.8%
viability, T/C (second compound 0.1 µM, first compound 0.949 µM): 101%
viability, T/C (second compound 0.1 µM, first compound 3 µM): 105%
viability, T/C (second compound 0.316 µM, first compound 0.00949 µM): 74.9%
viability, T/C (second compound 0.316 µM, first compound 0.03 µM): 73.3%
viability, T/C (second compound 0.316 µM, first compound 0.0949 µM): 69.6%
viability, T/C (second compound 0.316 µM, first compound 0.3 µM): 55%
viability, T/C (second compound 0.316 µM, first compound 0.949 µM): 56.6%
viability, T/C (second compound 0.316 µM, first compound 3 µM): 46.7%
viability, T/C (second compound 1 µM, first compound 0.00949 µM): 58.9%
viability, T/C (second compound 1 µM, first compound 0.03 µM): 68.2%
viability, T/C (second compound 1 µM, first compound 0.0949 µM): 56%
viability, T/C (second compound 1 µM, first compound 0.3 µM): 47.2%
viability, T/C (second compound 1 µM, first compound 0.949 µM): 42.4%
viability, T/C (second compound 1 µM, first compound 3 µM): 22.4%
viability, T/C (second compound 3.16 µM, first compound 0.00949 µM): 57.1%
viability, T/C (second compound 3.16 µM, first compound 0.03 µM): 64%
viability, T/C (second compound 3.16 µM, first compound 0.0949 µM): 42.5%
viability, T/C (second compound 3.16 µM, first compound 0.3 µM): 33.4%
viability, T/C (second compound 3.16 µM, first compound 0.949 µM): 27.5%
viability, T/C (second compound 3.16 µM, first compound 3 µM): 11.3%
viability, T/C (second compound 10 µM, first compound 0.00949 µM): 46.1%
viability, T/C (second compound 10 µM, first compound 0.03 µM): 46.7%
viability, T/C (second compound 10 µM, first compound 0.0949 µM): 33.6%
viability, T/C (second compound 10 µM, first compound 0.3 µM): 24.9%
viability, T/C (second compound 10 µM, first compound 0.949 µM): 18.6%
viability, T/C (second compound 10 µM, first compound 3 µM): 3.49%

C=CCn1c(=O)c2cnc(Nc3ccc(N4CCN(C)CC4)cc3)nc2n1-c1cccc(C(C)(C)O)n1
viability, T/C (compound 0.0316 µM): 96.7% and 116%
viability, T/C (compound 0.1 µM): 93.5% and 103%
viability, T/C (compound 0.316 µM): 98.4% and 90.7%
viability, T/C (compound 1 µM): 102% and 89.4%
viability, T/C (compound 3.16 µM): 126% and 110%
viability, T/C (compound 10 µM): 137% and 139%
IC50 (curve of compound): > 10000 nM

Cc1nc(NC(=O)N2CCCC2C(N)=O)sc1-c1ccnc(C(C)(C)C(F)(F)F)c1 (stereo unspecified)
viability, T/C (compound 0.0316 µM): 97.5% and 84.4%
viability, T/C (compound 0.1 µM): 80.2% and 88.7%
viability, T/C (compound 0.316 µM): 65.3% and 69.1%
viability, T/C (compound 1 µM): 59.3% and 53.7%
viability, T/C (compound 3.16 µM): 52.5% and 46.1%
viability, T/C (compound 10 µM): 29.6% and 18.7%
IC50 (curve of compound): 2030 nM and 1790 nM

CC(C)NCC(C(=O)N1CCN(c2ncnc3c2C(C)CC3O)CC1)c1ccc(Cl)cc1 (stereo unspecified)
viability, T/C (compound 0.1 µM): 92.1% [middle of 13 runs]
viability, T/C (compound 0.316 µM): 79.9% [middle of 13 runs]
viability, T/C (compound 1 µM): 64.4% [middle of 13 runs]
viability, T/C (compound 3.16 µM): 53.1% [middle of 13 runs]
viability, T/C (compound 10 µM): 42.7% [middle of 13 runs]

Cc1nc(NC(=O)N2CCCC2C(N)=O)sc1-c1ccnc(C(C)(C)C(F)(F)F)c1 (stereo unspecified) + CCN1CCN(Cc2ccc(Nc3ncc(F)c(-c4cc(F)c5nc(C)n(C(C)C)c5c4)n3)nc2)CC1
IC50 (curve of first compound, second compound 0.01 µM): 1850 nM
IC50 (curve of first compound, second compound 0.0316 µM): 1410 nM
IC50 [1]: 1140 nM
IC50 [2]: 1010 nM
IC50 [3]: 462 nM
viability, T/C (second compound 0.01 µM, first compound 0.0316 µM): 95.2%
viability, T/C (second compound 0.01 µM, first compound 0.1 µM): 81.4%
viability, T/C (second compound 0.01 µM, first compound 0.316 µM): 73.2%
viability, T/C (second compound 0.01 µM, first compound 1 µM): 59%
viability, T/C (second compound 0.01 µM, first compound 3.16 µM): 45.4%
viability, T/C (second compound 0.01 µM, first compound 10 µM): 13.7%
viability, T/C (second compound 0.0316 µM, first compound 0.0316 µM): 94.1%
viability, T/C (second compound 0.0316 µM, first compound 0.1 µM): 82.3%
viability, T/C (second compound 0.0316 µM, first compound 0.316 µM): 69%
viability, T/C (second compound 0.0316 µM, first compound 1 µM): 55.4%
viability, T/C (second compound 0.0316 µM, first compound 3.16 µM): 40.1%
viability, T/C (second compound 0.0316 µM, first compound 10 µM): 18.2%
viability, T/C (second compound 0.1 µM, first compound 0.0316 µM): 88.1%
viability, T/C (second compound 0.1 µM, first compound 0.1 µM): 78.7%
viability, T/C (second compound 0.1 µM, first compound 0.316 µM): 59.2%
viability, T/C (second compound 0.1 µM, first compound 1 µM): 56.4%
viability, T/C (second compound 0.1 µM, first compound 3.16 µM): 35.2%
viability, T/C (second compound 0.1 µM, first compound 10 µM): 9.25%
viability, T/C (second compound 0.316 µM, first compound 0.0316 µM): 90.8%
viability, T/C (second compound 0.316 µM, first compound 0.1 µM): 74.8%
viability, T/C (second compound 0.316 µM, first compound 0.316 µM): 69.7%
viability, T/C (second compound 0.316 µM, first compound 1 µM): 48.2%
viability, T/C (second compound 0.316 µM, first compound 3.16 µM): 32.1%
viability, T/C (second compound 0.316 µM, first compound 10 µM): 6.45%
viability, T/C (second compound 1 µM, first compound 0.0316 µM): 89.3%
viability, T/C (second compound 1 µM, first compound 0.1 µM): 84.2%
viability, T/C (second compound 1 µM, first compound 0.316 µM): 54.4%
viability, T/C (second compound 1 µM, first compound 1 µM): 35.1%
viability, T/C (second compound 1 µM, first compound 3.16 µM): 10.7%
viability, T/C (second compound 1 µM, first compound 10 µM): 1.63%

CC(C)(C)c1cnc(CSc2cnc(NC(=O)C3CCNCC3)s2)o1
viability, T/C (compound 0.00949 µM): 110% and 99.4%
viability, T/C (compound 0.03 µM): 110% and 114%
viability, T/C (compound 0.0949 µM): 45.9% and 84.2%
viability, T/C (compound 0.3 µM): 0.46% and 0.83%
viability, T/C (compound 0.949 µM): 0.54% and 0.68%
viability, T/C (compound 3 µM): 0.61% and 0.65%
IC50 (curve of compound): 88.2 nM and 152 nM
